According to patent publication US12606557B2, “Substituted indoles with inhibitory activity” (UNIVERSITY OF PITTSBURGH—OF THE COMMONWEALTH SYSTEM OF …, priority 2020, dated 2026):
Several values for one entry are separate records, joined by “and”; a condition that tells them apart may be missing. Equal values may be shown once. Read-outs that look alike come from different tables or passages of the source.

Assay: Blood pharmacokinetics after a single intraperitoneal dose
Format: in vivo, male CD1 mice
Settings: for blood concentrations quantifiable up to: 1 animal out of 3, LLOQ 10.04 ng/mL; for concentration at 0.08 hr / concentration at 0.25 hr / concentration at 0.5 hr / concentration at 1 hr / concentration at 2 hr / concentration at 4 hr / concentration at 8 hr / concentration at 24 hr / AUC(0-inf) / AUC(0-t) / Cmax / Tmax: male, CD1, mouse, in vivo; for concentration at 24 hr: value excluded from data analysis; for AUC(0-inf) / AUC(0-t) / Cmax / Tmax: blood, mean
Description: The objective of this example was to investigate the blood pharmacokinetics of UPHH-123 in male CD1 mice following a single intraperitoneal dose administration. Eighteen male CD1 mice were divided in two groups as, Group 1 and Group 2 comprising nine mice in each group.
Animals in Group 1 were administered intraperitoneally with UPHH-123 solution formulation in 5% NMP, 5% Solutol HS, 30% PEG-400 and 60% normal saline at 10.4 mg/kg dose. Animals in Group 2 were administered intraperitoneally with UPHH-123 solution formulation in 5% NMP, 5% Solutol HS, 30% PEG-400 and 60% normal saline) at 52 mg/kg dose.
Blood samples (approximately 120 μL) were collected at pre-dose, 0.08, 0.25, 0.5, 1, 2, 4, 8 and 24 hr. The blood samples were collected at each time point in a labeled micro centrifuge tube containing K2EDTA as anticoagulant. Immediately aliquot (50 μL) of blood was hemolyzed with equal volume of water (50 μL) and quenched with three volume (150 μL) of acetonitrile (IS containing acetonitrile) and samples were stored below −70° C. until bioanalysis. All samples were processed for analysis by protein precipitation using acetonitrile (ACN) and analyzed with fit for purpose LC/MS/MS method (LLOQ: 10.04 ng/mL for UPHH-123 in blood). Pharmacokinetic parameters were calculated using the non-compartmental analysis tool of Phoenix WinNonlin (Version 7.0). Mean pharmacokinetic parameters are summarized below: […]

Structure (SMILES): COc1ccc(Cn2ccc3ccc(C(=O)NO)cc32)cc1 [UPHH-123]
- blood concentrations quantifiable up to (10.4 mg/kg IP): up to 24 hr
- Blood Concentration, individual animal (10.4 mg/kg IP, 0.08 hr): 2082.46 ng/mL and 2293.56 ng/mL
- Blood Concentration, individual animal (10.4 mg/kg IP, 0.25 hr): 2572.69 ng/mL and 4414.44 ng/mL
- Blood Concentration, individual animal (10.4 mg/kg IP, 0.5 hr): 675.87 ng/mL and 848.67 ng/mL
- Blood Concentration, individual animal (10.4 mg/kg IP, 1 hr): 105.72 ng/mL and 180.27 ng/mL
- Blood Concentration, individual animal (10.4 mg/kg IP, 2 hr): 39.90 ng/mL and 98.73 ng/mL and 125.25 ng/mL
- Blood Concentration, individual animal (10.4 mg/kg IP, 4 hr): 47.81 ng/mL and 118.38 ng/mL and 92.93 ng/mL
- Blood Concentration, individual animal (10.4 mg/kg IP, 8 hr): 26.21 ng/mL and 17.80 ng/mL
- Blood Concentration, individual animal (10.4 mg/kg IP, 24 hr, below LLOQ 10.04 ng/mL = zero): 0.00 ng/mL (2×) and 14.58 ng/mL
- blood concentrations quantifiable up to (52 mg/kg IP): up to 24 hr
- Blood Concentration, individual animal (52 mg/kg IP, 0.08 hr): 7841.88 ng/mL and 4635.35 ng/mL
- Blood Concentration, individual animal (52 mg/kg IP, 0.25 hr): 6058.02 ng/mL and 5694.33 ng/mL
- Blood Concentration, individual animal (52 mg/kg IP, 0.5 hr): 3520.30 ng/mL and 4708.54 ng/mL
- Blood Concentration, individual animal (52 mg/kg IP, 1 hr): 2031.75 ng/mL and 2659.04 ng/mL
- Blood Concentration, individual animal (52 mg/kg IP, 2 hr): 315.76 ng/mL and 238.47 ng/mL and 525.92 ng/mL
- Blood Concentration, individual animal (52 mg/kg IP, 4 hr): 442.67 ng/mL and 145.43 ng/mL and 125.55 ng/mL
- Blood Concentration, individual animal (52 mg/kg IP, 8 hr): 167.15 ng/mL and 107.02 ng/mL
- Blood Concentration, individual animal (52 mg/kg IP, 24 hr, below LLOQ 10.04 ng/mL = zero): 0.00 ng/mL (2×) and 10.38 ng/mL
- dose related increase in plasma exposure (from 10.4 to 52 mg/kg IP): 3.6 fold
- concentration at 0.08 hr (10.4 mg/kg, 10.4 mg/kg IP, 0.08 hr, read-out: Blood Concentration, Mean): 1990 ng/mL
- concentration at 0.08 hr (10.4 mg/kg, 10.4 mg/kg IP, 0.08 hr, read-out: Blood Concentration, individual animal): 1600 ng/mL
- concentration at 0.25 hr (10.4 mg/kg, 10.4 mg/kg IP, 0.25 hr, read-out: Blood Concentration, Mean): 3810 ng/mL
- concentration at 0.25 hr (10.4 mg/kg, 10.4 mg/kg IP, 0.25 hr, read-out: Blood Concentration, individual animal): 4440 ng/mL
- concentration at 0.5 hr (10.4 mg/kg, 10.4 mg/kg IP, 0.5 hr, read-out: Blood Concentration, Mean): 681 ng/mL
- concentration at 0.5 hr (10.4 mg/kg, 10.4 mg/kg IP, 0.5 hr, read-out: Blood Concentration, individual animal): 519 ng/mL
- concentration at 1 hr (10.4 mg/kg, 10.4 mg/kg IP, 1 hr, read-out: Blood Concentration, Mean): 148 ng/mL
- concentration at 1 hr (10.4 mg/kg, 10.4 mg/kg IP, 1 hr, read-out: Blood Concentration, individual animal): 158 ng/mL
- concentration at 2 hr (10.4 mg/kg, 10.4 mg/kg IP, 2 hr): 88 ng/mL
- concentration at 4 hr (10.4 mg/kg, 10.4 mg/kg IP, 4 hr): 86.4 ng/mL
- concentration at 8 hr (10.4 mg/kg, 10.4 mg/kg IP, 8 hr, read-out: Blood Concentration, Mean): 22.6 ng/mL
- concentration at 8 hr (10.4 mg/kg, 10.4 mg/kg IP, 8 hr, read-out: Blood Concentration, individual animal): 23.9 ng/mL
- concentration at 24 hr (10.4 mg/kg, 10.4 mg/kg IP, 24 hr): 14.6 ng/mL
- concentration at 0.08 hr (52 mg/kg, 52 mg/kg IP, 0.08 hr, read-out: Blood Concentration, Mean): 6160 ng/mL
- concentration at 0.08 hr (52 mg/kg, 52 mg/kg IP, 0.08 hr, read-out: Blood Concentration, individual animal): 6000 ng/mL
- concentration at 0.25 hr (52 mg/kg, 52 mg/kg IP, 0.25 hr, read-out: Blood Concentration, Mean): 5680 ng/mL
- concentration at 0.25 hr (52 mg/kg, 52 mg/kg IP, 0.25 hr, read-out: Blood Concentration, individual animal): 5280 ng/mL
- concentration at 0.5 hr (52 mg/kg, 52 mg/kg IP, 0.5 hr, read-out: Blood Concentration, Mean): 3820 ng/mL
- concentration at 0.5 hr (52 mg/kg, 52 mg/kg IP, 0.5 hr, read-out: Blood Concentration, individual animal): 3230 ng/mL
- concentration at 1 hr (52 mg/kg, 52 mg/kg IP, 1 hr, read-out: Blood Concentration, Mean): 2330 ng/mL
- concentration at 1 hr (52 mg/kg, 52 mg/kg IP, 1 hr, read-out: Blood Concentration, individual animal): 2280 ng/mL
- concentration at 2 hr (52 mg/kg, 52 mg/kg IP, 2 hr): 360 ng/mL
- concentration at 4 hr (52 mg/kg, 52 mg/kg IP, 4 hr): 238 ng/mL
- concentration at 8 hr (52 mg/kg, 52 mg/kg IP, 8 hr, read-out: Blood Concentration, Mean): 145 ng/mL
- concentration at 8 hr (52 mg/kg, 52 mg/kg IP, 8 hr, read-out: Blood Concentration, individual animal): 160 ng/mL
- concentration at 24 hr (52 mg/kg, 52 mg/kg IP, 24 hr): 10.4 ng/mL
- AUC(0-inf) (10.4 mg/kg IP): 1950 ng·h/mL
- AUC(0-t) (10.4 mg/kg IP): 1850 ng·h/mL
- Cmax (10.4 mg/kg IP): 3810 ng/mL
- Tmax (10.4 mg/kg IP): 15 min
- AUC(0-inf) (52 mg/kg IP): 7640 ng·h/mL
- AUC(0-t) (52 mg/kg IP): 6680 ng·h/mL
- Cmax (52 mg/kg IP): 6160 ng/mL
- Tmax (52 mg/kg IP): 4.8 min
